Assay results from paper PMC4055585, “Pharmacokinetics of Anti-HBV Polyoxometalate in Rats” (PLoS ONE, 2014).
“And” between values parts separate entries of the source, which are not always exact repeats. Equal values may be shown once. Read-outs that look alike come from different tables or passages of the source.

Tests used:
rat plasma protein = experiment: Plasma protein binding by equilibrium dialysis; format: in vitro ADME; details: for Protein binding rate, Mean: six parallel samples
Method: Various amounts of Compound 1 were added to pooled male rat serum to yield concentrations of 9, 18 and 36 mg/mL. The dialysis membrane was Spectrapor II (Beijing Dingguo Changsheng Biotechnology Co. Ltd, China) with a molecular weight cutoff of 12,000 to 14,000. […] Dialyzed serum and buffer volumes were collected and frozen at −20°C until analysis, and binding data were corrected for fluid shifts that occurred during dialysis. Experiments were done in six parallel samples. The following formula was used to calculate plasma protein binding rate of Compound 1 under different concentrations: [drawing 1]
Cplasma: concentration of Compound 1;
Cbuffer: concentration of Compound 1 in buffer
(§1) The urine, bile, postdialysis serum and buffer samples were aliquots into 0.1 mL, treated in the same way as plasma samples.

[1] = Urine and feces excretion after oral administration; format: in vivo, Wistar rats; details: oral 180 mg/kg
Method: Rats were placed in metabolism cages during the experiment to facilitate urine and feces collection. Urine and feces were collected during 0–1 h, 1–2, 2–4, 4–8, 8–12, 12–24, 24–48 and […]. Urine volume and feces weight were measured, and samples were frozen at −20°C until analysis.
as §1
(§2) Feces, fat and pancreas samples were aliquots into 0.1 g and dipped in 1 mL concentrated H2SO4 in test tubes. […] 3 mL concentrated HNO3was added at 120°C for 12 h until thorough dissolution.
(§3) Concentrations of Compound 1 were determined by atomic spectrometry. Samples were analyzed directly by ICP-MS. Polyoxometalate concentrations were estimated directly from measured tungsten concentrations.

[2] = Tissue distribution after oral administration; format: in vivo, Wistar rats; details: oral 180 mg/kg
Method: Five rats for each duration, 2, 24, 48 and 96 h post-dose, were sacrificed by decapitation after administration of Compound 1. The whole brain, heart, liver, spleen, lung, kidney, uterus, testis, ovary, epididymis, stomach, intestine, pancreas, thymus, fat, and skeletal muscle were rapidly dissected and harvested. All tissues and organs were weighed on an analytical balance and frozen at −20°C until analysis.
The tissue samples (except for fat and pancreas) were aliquots into 0.1 g and dipped in 3 mL concentrated HNO3 in test tubes.
as §2, §3

[3] = design: method as in earlier work; details: cited from earlier work
[4] = Bile excretion after oral administration (bile duct cannulation); format: in vivo, Rats; details: oral 180 mg/kg, % of the drug tested
Method: Bile excretion: Rats (n = 6, male and female in equal) were anesthetized with diethyl ether, and bile duct were cannulated with a polyethylene tube. After recovery from anesthesia, rates were orally administered Compound 1 at a dose of 180 mg/kg BW. The bile samples were collected during 0–1, 1–2, 2–4, 4–8, 8–12, 12–24 and 24–48 h by bile duct cannulation. The bile volume was measured, and samples were frozen at −20°C until analysis.
as §1, §3

[5] = rat, in vivo, iv, 180 mg/kg
hepatitis B virus = test system: hepatitis B virus; design: method as in PMID 22264474; details: cited from earlier work
[6] = rat, in vivo; for AUC0–96 (area under the curve up to 96 h) / AUC0–∞ (area under the total concentration-time curve) / CL (systemic clearance) / Cmax (maximum concentration) / MRT (mean residence time) / Tmax (time of peak concentration) / Vd (steady-state volume of distribution) / ke (elimination rate constant) / t1/2 (half-life): po

Question: For Cs2K4Na[SiW9Nb3O40].H2O [Compound 1], which “extent of binding to rat plasma protein” value (rat plasma protein; 36 mg/ml) is on record?
Answer: The value was “moderately bound”.

Question: What about the “extent of binding to rat plasma protein” value (rat plasma protein; 9–18 mg/ml) of the same substance?
Answer: Its value is “highly bound”.

Question: And the “Protein binding rate (single samples)” value (rat plasma protein; added concentration 9 mg/mL, rat serum, dialysis 48 h, 37°C, pH 7.4)?
Answer: The value was 47.79% and 54.71% and 73.72% and 62.68% and 67.76% and 66.13%.

Question: And the “Protein binding rate, Mean” value (rat plasma protein; added concentration 9 mg/mL, dialysis 48 h)?
Answer: Its value is 62.13%.

Question: What about the “Protein binding rate, Mean” value (rat plasma protein; added concentration 18 mg/mL, dialysis 48 h) of the same substance?
Answer: The value was 71.20%.

Question: And the “Protein binding rate, Mean” value (rat plasma protein; added concentration 36 mg/mL, dialysis 48 h)?
Answer: The value was 49.00%.

Question: What about the “total excreted, % of the total amount administered” value ([1]; till 48 h) of the same substance?
Answer: Its value is “about 30.84%”.

Question: And the “total excreted, % of the total amount administered” value ([1]; till 72 h)?
Answer: Its value is “about 31.1%”.

Question: And the “content in kidney and liver relative to the other tissues” value [2]?
Answer: The value was 10–70 times.

Question: What about the “deposition in the brain” value [2] of the same substance?
Answer: Its value is “Less deposition”.

Question: And the “tissue with highest deposition” value ([2]; 16 tissues)?
Answer: The value was “kidney, followed by the stomach, intestine and liver”.

Question: What about the “content in tissues at 96 h relative to peak content” value ([2]; 96 h) of the same substance?
Answer: Its value is “less than 10%”.

Question: And the reproductive toxicity [3]?
Answer: The reproductive toxicity was “no obvious reproductive toxicity”.

Question: What about the “accumulative excretion rate, bile” value [4] of the same substance?
Answer: Its value is “about 0.42%”.

Question: What about the “AUC0–96 (area under the curve up to 96 h)” value [5] of the same substance?
Answer: The value was 2549 ± 327.3 µg·h/mL.

Question: What about the “AUC0–∞ (area under the total concentration-time curve)” value (shortened to “AUC0–∞”) [5] of the same substance?
Answer: The value was 2965 ± 342.8 µg·h/mL.

Question: What about the “CL (systemic clearance)” value [5] of the same substance?
Answer: The value was 15.34 ± 1.695 mL/h.

Question: And the “Cmax (maximum concentration)” value [5]?
Answer: Its value is 235400 ± 66910 ng/mL.

Question: And the “MRT (mean residence time)” value [5]?
Answer: The value was 47.05 ± 3.529 h.

Question: And the “Tmax (time of peak concentration)” value [5]?
Answer: Its value is 8.34 ± 5.16 min.

Question: What about the “Vd (steady-state volume of distribution)” value [5] of the same substance?
Answer: Its value is 679.7 ± 114.7 mL.

Question: And the “compartment model fitted by the pharmacokinetic behavior” value [5]?
Answer: Its value is “two compartment model”.

Question: And the “ke (elimination rate constant)” value [5]?
Answer: Its value is 0.023 ± 0.004 h⁻¹.

Question: And the “t1/2 (half-life)” value [5]?
Answer: The value was 30.76 ± 4.658 h.

Question: And the “secretion of HBV antigens and HBV DNA” value (hepatitis B virus; HepG2.2.15 cells)?
Answer: Its value is “effectively suppressed”.

Question: And the “activity against HBV” value (hepatitis B virus; HepG 2.2.15)?
Answer: The value was “high activity against HBV”.

Question: And the toxicity (hepatitis B virus; HepG 2.2.15)?
Answer: Its toxicity is “low toxicity”.

Question: What about the Tmax range [6] of the same substance?
Answer: The Tmax range was 6 to 180 min.

Question: What about the half-life range [6] of the same substance?
Answer: Its half-life range is 20 to 30 h.

Question: What about the absolute bioavailability ([6]; 180 mg/kg) of the same substance?
Answer: Its absolute bioavailability is 14.67%.

Question: What about the “AUC0–96 (area under the curve up to 96 h)” value ([6]; 45 mg/kg) of the same substance?
Answer: Its value is 150.9 ± 87.15 µg·h/mL.

Question: What about the “AUC0–∞” value ([6]; 45 mg/kg) of the same substance?
Answer: The value was 165.1 ± 94.98 µg·h/mL.

Question: What about the “CL (systemic clearance)” value ([6]; 45 mg/kg) of the same substance?
Answer: The value was 86.96 ± 42.45 mL/h.

Question: And the “Cmax (maximum concentration)” value ([6]; 45 mg/kg)?
Answer: The value was 11130 ± 8370 ng/mL.

Question: And the “MRT (mean residence time)” value ([6]; 45 mg/kg)?
Answer: Its value is 36.45±4.495 H.

Question: What about the “Tmax (time of peak concentration)” value ([6]; 45 mg/kg) of the same substance?
Answer: Its value is 2.000±0.632 H.

Question: And the “Vd (steady-state volume of distribution)” value ([6]; 45 mg/kg)?
Answer: The value was 3437 ± 1593 mL.

Question: And the “ke (elimination rate constant)” value ([6]; 45 mg/kg)?
Answer: The value was 0.025 ± 0.002 h⁻¹.

Question: What about the “t1/2 (half-life)” value ([6]; 45 mg/kg) of the same substance?
Answer: The value was 27.91±2.606 H.

Question: What about the “AUC0–96 (area under the curve up to 96 h)” value ([6]; 180 mg/kg) of the same substance?
Answer: Its value is 373.9 ± 112.7 µg·h/mL.

Question: What about the “AUC0–∞” value ([6]; 180 mg/kg) of the same substance?
Answer: The value was 410.1 ± 128.5 µg·h/mL.

Question: What about the “CL (systemic clearance)” value ([6]; 180 mg/kg) of the same substance?
Answer: Its value is 117.1 ± 29.49 mL/h.

Question: And the “Cmax (maximum concentration)” value ([6]; 180 mg/kg)?
Answer: Its value is 30850 ± 14250 ng/mL.

Question: What about the “MRT (mean residence time)” value ([6]; 180 mg/kg) of the same substance?
Answer: The value was 35.42±5.940 H.

Question: What about the “Tmax (time of peak concentration)” value ([6]; 180 mg/kg) of the same substance?
Answer: Its value is 1.833±0.753 H.

Question: And the “Vd (steady-state volume of distribution)” value ([6]; 180 mg/kg)?
Answer: Its value is 4620 ± 829.9 mL.

Question: What about the “ke (elimination rate constant)” value ([6]; 180 mg/kg) of the same substance?
Answer: Its value is 0.025 ± 0.003 h⁻¹.

Question: What about the “t1/2 (half-life)” value ([6]; 180 mg/kg) of the same substance?
Answer: The value was 27.88±3.221 H.

Question: What about the “AUC0–96 (area under the curve up to 96 h)” value ([6]; 720 mg/kg) of the same substance?
Answer: Its value is 1216 ± 402.2 µg·h/mL.

Question: And the “AUC0–∞” value ([6]; 720 mg/kg)?
Answer: Its value is 1316 ± 449.7 µg·h/mL.

Question: What about the “CL (systemic clearance)” value ([6]; 720 mg/kg) of the same substance?
Answer: Its value is 153.7 ± 62.35 mL/h.

Question: What about the “Cmax (maximum concentration)” value ([6]; 720 mg/kg) of the same substance?
Answer: The value was 49290 ± 9939 ng/mL.

Question: And the “MRT (mean residence time)” value ([6]; 720 mg/kg)?
Answer: Its value is 37.57±4.676 H.

Question: What about the “Tmax (time of peak concentration)” value ([6]; 720 mg/kg) of the same substance?
Answer: Its value is 2.167±0.753 H.

Question: What about the “Vd (steady-state volume of distribution)” value ([6]; 720 mg/kg) of the same substance?
Answer: Its value is 5583 ± 2416 mL.

Question: And the “ke (elimination rate constant)” value ([6]; 720 mg/kg)?
Answer: Its value is 0.028 ± 0.003 h⁻¹.

Question: And the “t1/2 (half-life)” value ([6]; 720 mg/kg)?
Answer: Its value is 24.92±2.178 H.
